Assay results taken from ChEMBL document CHEMBL1133029, “Synthesis of hybrid distamycin-cysteine labeled with 99mTc: a model for a novel class of cancer imaging agents” (Bioorg Med Chem Lett, 2000).

Tests used:
[1] = test system: K562; test: Concentration required for inhibitory activity was evaluated against human leukemic K562 cell line; assay type: functional, cell-based
[2] = test system: L1210; test: Inhibitory activity against L1210 murine leukemic cell line after 48 hr of exposure to compound; assay type: functional, cell-based; conditions: Mus musculus, L1210, 48 h

SMILES: Cn1cc(NC(=O)c2cc(NC(=O)c3cc(NC=O)cn3C)cn2C)cc1C(=O)NCCC(=N)N
- Concentration [1]: 12 µM
- IC50 [2]: 9.64 µM

SMILES: Cn1cc(NC(=O)c2cc(NC(=O)c3cc(NC(=O)[C@@H](N)CS)cn3C)cn2C)cc1C(=O)NCCC(=N)N
- Concentration [1]: 10 µM
- IC50 [2]: 7.96 µM
